Experimental data reported in US7211685B2, “Calcium receptor antagonists” (Japan Tobacco Inc., priority 2000, dated 2007).
Structures can show the parent of a compound that is named as a salt.

Legend:
[1] = system: PTH secretion; assay: PTH secretion promoting action, oral administration to male SD rats, serum PTH by rat PTH (1-84) ELISA; type: in vivo; conditions: for serum PTH concentration, 30 min later / serum PTH concentration, 120 min later / serum PTH concentration, 240 min later: male SD rats, oral, mean ± S.E.
Description: (§1) PTH Secretion Promoting Action
(§2) The test compound was orally administered to 6 to 9-week-old male SD rats (Charles River Japan, Inc.) fasted for 20 hr, using a solvent (5% ethanol, 0.5% aqueous methyl cellulose solution) at a dose of 30 mg/5 ml/kg and 100 mg/5 ml/kg. A solvent alone was orally administered to the control group at a dose of 5 ml/kg. The blood was drawn from the tail vein immediately before and 0.5, 1, 2, 4, 6 hr after the administration of the test compound, and sera were obtained. The serum PTH concentration was measured using rat PTH (1-84) ELISA kit (Nohon Medi-Physics). The results of the serum PTH concentration before and 30 min and 4 hr after the administration of the test compound are shown in Table 24, and the results of the serum PTH concentration before and 30 min and 2 hr after the administration of the test compound of the 30 mg/5 ml/kg administration group are shown in Table 25.
In FIG. 1, FIG. 2 and FIG. 3, the time-course changes of the serum PTH concentration at the dose (30 mg/kg) of Example 22, Example 23 and Example 24 are shown.

[2] = molecular target: T1, human calcium receptor (Homo sapiens, UniProt P41180); assay: Evaluation of antagonistic action on calcium receptor using reporter gene (luciferase); type: cell-based
T1 construct: expressed in transfected cells; host or cells: cell strain derived from rat adrenal
T1 sequence (P41180 20-1078): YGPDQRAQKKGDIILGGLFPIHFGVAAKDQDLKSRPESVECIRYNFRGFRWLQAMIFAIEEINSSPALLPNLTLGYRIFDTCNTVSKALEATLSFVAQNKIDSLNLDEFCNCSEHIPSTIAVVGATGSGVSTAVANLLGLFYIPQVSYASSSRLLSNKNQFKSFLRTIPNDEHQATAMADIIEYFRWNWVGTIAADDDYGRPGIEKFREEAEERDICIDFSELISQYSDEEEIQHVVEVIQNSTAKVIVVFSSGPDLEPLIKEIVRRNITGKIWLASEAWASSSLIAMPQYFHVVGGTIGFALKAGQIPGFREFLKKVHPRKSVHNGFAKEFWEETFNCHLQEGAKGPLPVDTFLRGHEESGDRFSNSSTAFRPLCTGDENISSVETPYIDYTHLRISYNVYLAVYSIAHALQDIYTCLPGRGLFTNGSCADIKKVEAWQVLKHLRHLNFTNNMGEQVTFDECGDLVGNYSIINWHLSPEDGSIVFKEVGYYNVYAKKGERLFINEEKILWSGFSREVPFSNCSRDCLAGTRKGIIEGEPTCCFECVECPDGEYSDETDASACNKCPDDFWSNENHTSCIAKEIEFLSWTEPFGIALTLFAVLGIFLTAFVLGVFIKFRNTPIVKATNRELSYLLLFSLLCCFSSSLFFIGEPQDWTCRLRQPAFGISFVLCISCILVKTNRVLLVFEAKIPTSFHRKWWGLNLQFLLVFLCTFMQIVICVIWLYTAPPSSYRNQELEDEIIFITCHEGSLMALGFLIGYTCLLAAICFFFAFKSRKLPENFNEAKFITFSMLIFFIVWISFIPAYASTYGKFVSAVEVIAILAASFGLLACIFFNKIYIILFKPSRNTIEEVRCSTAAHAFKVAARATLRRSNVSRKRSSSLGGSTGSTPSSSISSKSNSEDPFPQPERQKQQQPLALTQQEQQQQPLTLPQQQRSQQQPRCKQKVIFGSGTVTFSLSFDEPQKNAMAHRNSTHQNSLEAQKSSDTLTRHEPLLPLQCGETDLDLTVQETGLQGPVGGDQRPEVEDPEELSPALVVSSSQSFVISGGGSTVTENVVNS
Description: Evaluation of Antagonistic Action on Calcium Receptor Using Reporter Gene
Luciferase cDNA and human calcium receptor cDNA were transfected into a cell strain derived from rat adrenal and the transformed cells were cultured overnight in a medium (F12 medium containing 0.5% dialyzed horse serum and 0.25% dialyzed bovine fetal serum). The next day, a dimethyl sulfoxide solution containing a test compound at 0.01–100 mM was diluted 100-fold with the medium and added to the test compound group at 10 μl per well. A medium containing 50 mM calcium chloride was added to the control group at 10 μl per well, such that the final calcium concentration of the medium became 5 mM. A medium alone was added to the blank group. After culture for 4 hr, luciferase substrate (PicaGene LT-2.0, TOYO INK) was added and the luciferase activity was measured with a photoluminometer. The inhibitory rate (%) was calculated from the obtained measured values according to the following formula.
Based on the results, the concentration (IC50) showing 50% inhibitory rate was determined.

[3] = system: PTH release; conditions: OVX rat, rat PTH (1-34) 5 μg/kg; cited from earlier work
[4] = system: PTH secretion; assay: PTH secretion promoting action, oral administration to female Fisher rats, serum PTH by rat PTH (1-84) ELISA; type: in vivo; conditions: 30 mg/5 ml/kg, mean ± S.E.
Description: as §1
as §2, with “4” for “6”, “6-week-old female Fisher” for “9-week-old male SD”, “30” for “30 mg/5 ml/kg and 100”, “4” for “4, 6”, “26.” for “24, and the results of the serum PTH concentration before and 30 min and 2 hr after the administration of the test compound of the 30 mg/5 ml/kg administration group are shown in Table 25.”

[5] = Table 25, 30 mg/5 ml/kg administration group
[6] = 100 mg/kg administration group (lower line)

Molecule | serum PTH concentration, 30 min later [1, 5] [pg/mL] | serum PTH concentration, 120 min later [1, 5] [pg/mL] | IC50 ([2]; Table 25, final calcium 5 mM) [nM] | IC50 ([2]; Table 24, final calcium 5 mM) [nM] | other results
CN(C)c1ccccc1C(OC[C@H](O)CNC(C)(C)Cc1ccc2ccccc2c1)C1CC1 (some centres unmarked) [Example 82] | 121.9 ± 9.0 | 68.5 ± 11.4 | 51 |  | 
CC(C)(Cc1ccc2ccccc2c1)NC[C@@H](O)COCc1ccccc1 [Comparative Example 1, reference compound] |  |  |  | 560 | serum PTH concentration, 30 min later [1, 6]: 139.0 ± 18.8 pg/mL; serum PTH concentration, 240 min later [1, 6]: 78.9 ± 12.3 pg/mL; blood PTH concentration at 30 min relative to that before administration ([1]; 100 mg/kg, 30 min after administration): 1.3 times
Cc1ccsc1C(OC[C@H](O)CNC(C)(C)Cc1ccc2ccccc2c1)C1CC1 (some centres unmarked) [Example 100] | 130.1 ± 53.7 | 49.3 ± 4.4 | 67 |  | 
Cc1ccccc1[C@H](OC[C@H](O)CNC(C)(C)Cc1ccc2ccccc2c1)C1CC1 [Example 23, (2R)-1-[1,1-Dimethyl-2-(naphthalen-2-yl)ethylamino]-3-[(1R)-(cyclopropyl)(2-methylphenyl)methoxy]propan-2-ol] |  |  |  | 27 | 
COc1ccccc1C(OC[C@H](O)CNC(C)(C)Cc1ccc2ccccc2c1)C1CC1 (stereo partly drawn) [Example 1, (2R)-1-[1,1-Dimethyl-2-(naphthalen-2-yl)ethylamino]-3-[(cyclopropyl)(2-methoxyphenyl)methoxy]propan-2-ol] |  |  |  | 41 | serum PTH concentration, 30 min later [1, 6]: 160.0 ± 13.8 pg/mL; serum PTH concentration, 240 min later [1, 6]: 58.3 ± 7.3 pg/mL
rat PTH (1-34): rat parathyroid hormone fragment (1-34) administered to OVX rat (AVSEIQLMHNLGKHLASVERMQWLRKKLQDVHNF; Parathyroid hormone; UniProt P04089 32-65, looked up, fragment) |  |  |  |  | PTH concentration in blood, peak in 30 min [3]: about 175 pg/ml; time to restore original PTH level in blood [3]: 2 h
CC(C)(Cc1ccc2ccccc2c1)NC[C@@H](O)COC(c1cccc(C#N)c1)C1CC1 (some centres unmarked) [Example 105] | 115.4 ± 20.0 | 74.3 ± 12.1 | 49 |  | 
COc1ccccc1[C@@H](C)OC[C@H](O)CNC(C)(C)Cc1ccc2ccccc2c1 [Example 22, (2R)-1-[1,1-Dimethyl-2-(naphthalen-2-yl)ethylamino]-3-[(1R)-1-(2-methoxyphenyl)ethoxy]propan-2-ol hydrochloride] |  |  |  | 59 | 
COc1ccccc1[C@H](OC[C@H](O)CNC(C)(C)Cc1ccc2ccccc2c1)C1CC1 [Example 24, (2R)-1-[1,1-Dimethyl-2-(naphthalen-2-yl)ethylamino]-3-[(1R)-(cyclopropyl)(2-methoxyphenyl)methoxy]propan-2-ol] |  |  |  | 22 | 
COc1ccc(CC(C)(C)NC[C@@H](O)CO[C@@H](c2ccccc2C)C2CC2)cc1C [Example 95] | 199.1 ± 25.8 | 80.4 ± 9.6 | 29 |  | 
COc1ccc(CC(C)(C)NC[C@@H](O)CO[C@@H](c2ccccc2C)C2CC2)cc1C [Example 127] | 265.3 ± 22.3 | 75.2 ± 7.3 | 133 |  | 
CC(C)(Cc1ccc2ccccc2c1)NC[C@@H](O)CO[C@@H](c1ccccc1CO)C1CC1 [Example 58, (2R)-1-[1,1-Dimethyl-2-(naphthalen-2-yl)ethylamino]-3-[(1R)-(cyclopropyl)[2-(hydroxymethyl)phenyl]methoxy]propan-2-ol Hemifumarate] |  |  |  |  | serum PTH concentration, 30 min later [4]: 644.4 ± 65.2 pg/mL; serum PTH concentration, 240 min later [4]: 394.1 ± 100.9 pg/mL; serum PTH concentration, before administration [4]: 179.2 ± 45.6 pg/mL
Cc1ccccc1[C@H](OC[C@H](O)CNC(C)(C)Cc1ccc2ccccc2c1)C1CC1.O=C(O)/C=C/C(=O)O [Example 62] |  |  |  | 45 | serum PTH concentration, 30 min later [4]: 620.6 ± 34.2 pg/mL; serum PTH concentration, 240 min later [4]: 100.1 ± 11.7 pg/mL; serum PTH concentration, before administration [4]: 82.9 ± 14.5 pg/mL
CC(C)(Cc1ccc2ccccc2c1)NC[C@@H](O)COC(c1cccc(C(N)=O)c1)C1CC1 (some centres unmarked) [Example 80] | 156.6 ± 15.3 | 76.1 ± 12.6 | 64 |  | 
Cc1ccc(CC(C)(C)NC[C@@H](O)CO[C@@H](c2ccccc2C)C2CC2)cc1C [Example 111] | 236.3 ± 60.8 | 65.3 ± 6.4 | 24 |  | 
Cc1ccccc1C(OC[C@H](O)CNC(C)(C)Cc1ccc2ccccc2c1)C1CC1 (stereo partly drawn) [Example 2, (2R)-1-[1,1-Dimethyl-2-(naphthalen-2-yl)ethylamino]-3-[(cyclopropyl) (2-methylphenyl)methoxy]propan-2-ol] |  |  |  | 27 | serum PTH concentration, 30 min later [1, 6]: 154.8 ± 17.1 pg/mL; serum PTH concentration, 240 min later [1, 6]: 85.8 ± 17.3 pg/mL
COc1ccccc1C(C)OC[C@H](O)CNC(C)(C)Cc1ccc2ccccc2c1 (stereo partly drawn) [Example 5, (2R)-1-[1,1-Dimethyl-2-(naphthalen-2-yl)ethylamino]-3-[1-(2-methoxyphenyl)ethoxy]propan-2-ol hydrochloride] |  |  |  | 70 | 
CC(C)(Cc1ccc2ccccc2c1)NC[C@@H](O)CO[C@H](c1ccccc1CO)C1CC1 [Example 59, (2R)-1-[1,1-Dimethyl-2-(naphthalen-2-yl)ethylamino]-3-[(1S)-(cyclopropyl)[2-(hydroxymethyl)phenyl]methoxy]propan-2-ol Hemifumarate] |  |  |  |  | serum PTH concentration, 30 min later [4]: 313.4 ± 103.3 pg/mL; serum PTH concentration, 240 min later [4]: 62.2 ± 10.3 pg/mL; serum PTH concentration, before administration [4]: 189.8 ± 90.9 pg/mL
